Results published in patent US20110081428A1, “Use of thioflavin-like compounds to increase life span and/or health span” (priority 2009, published 2011).

Experiments:
Assay type in all cases: in vivo, Caenorhabditis elegans
[1] = test system: DAF-16 fusion protein [TJ356 daf-16::daf-16-gfp]; assay: DAF-16::GFP localization; conditions: ThT or curcumin treatment, no heat shock
Description: For fluorescent microscopy, TJ356 zIs356 IV [daf-16::daf-16-gfp+rol-6] or CF2189 Is001(skn-1::gfp+rol-6) were paralyzed with 1 mM levamisole mounted on 1% agarose pads and imaged using Olympus BX51 (60× objective) and HCImage software (Hamamatsu). For immunofluorescence, N2, […], CB1157 unc-54(e1157) or CL4176 dvIs27 [myo-3::Aβ(3 to 42)-let 3′UTR(pAF29); pRF4 (rol-6(su1006))] worms were treated for 24-36 h with or without 50 μM ThT at 25° C. After this period the worms were collected, rinsed, and fixed in 4% paraformaldehyde overnight. […] Paramyosin and perlecans were detected with primary monoclonal antibodies 5-23 and MH3 (developed by Henry Epstein and Robert H. Waterston and obtained from the Developmental Studies Hybridoma Bank developed under the auspices of the NICHD and maintained by The University of Iowa, Department of Biology, Iowa City, Iowa 52242) and AlexaFluor 633 goat anti-mouse (Molecular Probes) as secondary antibody. Soluble oligomers and Aβ peptide were detected with anti polyclonal All (Invitrogen) and 6E10 monoclonal (Covance) primary antibodies, respectively, with AlexaFluor 568 goat anti-rabbit and AlexaFluor 488 goat anti-mouse (Molecular Probes) as secondary antibodies. Images were processed and quantified by using Image Analyst MK II (Novato, Calif.).

[2] = test system: HE250 [unc-52(e669su250)II]; assay: Worm paralysis assay, unc-52 ts mutant; conditions: HE250, 25° C., 36 h; 50 μM ThT, 100 μM curcumin, 100 μM rifampicin
Description: (§1) Scoring for paralysis was initiated 2 and 8 days after temperature upshift for CL4176 and AM140, respectively. […] For sensitivity to EtOH or levamisole resistance, CW152 gas-1 (fc21) X and ZZ26 unc-63(x26)I worms were picked into 0.4 M EtOH or 50 μM levamisole, respectively, equilibrated for 5 min, and scored for paralysis as described above. Treated and untreated worms were compared with an unpaired t-test (implemented in Prism 4, Graphpad™ Software, Inc., San Diego, Calif., USA).

[3] = test system: CL4176 (Aβ3-42 expressed in muscle); assay: Worm paralysis assay, Aβ model; conditions: CL4176, 25° C.; 50 μM ThT, 100 μM curcumin
Description: as §1

HSP-16.2 = assay: Western blot HSP-16.2; conditions: 50 μM ThT, 100 μM curcumin, 4 and 7 days of treatment
Description: Peptide corresponding to amino acids 110-145 ([…]; SEQ ID NO:1) of HSP-16.2 was used to commercially synthesize antiserum (Invitrogen). Briefly, KLH-peptide was emulsified by mixing with an equal volume of Freund's adjuvant and injected into three subcutaneous dorsal sites for a total of 0.1 mg of peptide for immunization. The animals (rabbits) were bled, the blood allowed to clot and the serum collected by centrifugation. Monoclonal HSP-70 and Polyclonal HSF-1 primary antibodies were from stressgen (N27F3-4 and SPA-901, respectively).
Worms were transferred to siliconized eppendorf tubes, washed once in S-basal and frozen in liquid N2. Standard SDS-PAGE was performed using (4-12%) NOVEX gels and IVIES running buffer. Following transfer PVDF (BioRad) membranes were incubated with antisera (1:10000) or primary antibodies (1:1000) diluted in blocking buffer and then with secondary, goat anti-rabbit IgG antibody/horseradish peroxidase conjugate (Pierce), diluted 1:25000. Detection was undertaken with chemiluminescent reagents (SuperSignal, Pierce) and standard autoradiography.

[4] = test system: AM140 (rmIs132[P(unc-54) Q35::YFP]); assay: Worm paralysis assay, polyQ model; conditions: AM140, 25° C., 8 days; 50 μM ThT, 100 μM curcumin
Description: as §1

## COc1cc(/C=C/C(=O)CC(=O)/C=C/c2ccc(O)c(OC)c2)ccc1O [curcumin, reference compound]
[1]
  DAF-16::GFP localization: does not produce DAF-16::GFP relocalization
[2]
  paralysis phenotype of unc-52 mutant: Protection
[3]
  proportion of paralyzed worms: significantly decrease the proportion of paralyzed worms
HSP-16.2
  HSP-16.2 protein levels: increase the HSP-16.2 levels
[4]
  proportion of paralyzed worms: significantly decrease the proportion of paralyzed worms
